Counter-ions that a name gives are not always drawn.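 Results reflect a 48-hour exposure of cells in 96-well plates to compound at five concentrations. At the GI50, growth is halved.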 Activity calls are given as the source filed them. No stated cut-off is given here; in the data, active = GI50 up to about 1.1 µM and inactive = higher.
How the values were obtained:
Experiment in all cases: inhibition of tumour cell growth, NCI panel, 48 h
HOP-62 = tested on: HOP-62
DMS-114 = tested on: DMS-114
NCI-H460 = tested on: NCI-H460
RPMI-8226 = tested on: RPMI-8226
HT-29 = tested on: HT-29
SNB-78 = tested on: SNB-78
M19-MEL = tested on: M19-MEL
DLD-1 = tested on: DLD-1
NCI-H522 = tested on: NCI-H522
SF-268 = tested on: SF-268
NCI/ADR-RES = tested on: NCI/ADR-RES
UACC-257 = tested on: UACC-257
A498 = tested on: A498
KM-20L2 = tested on: KM-20L2
MDA-N = tested on: MDA-N
T47D = tested on: T47D
MDA-MB-435 = tested on: MDA-MB-435
BT-549 = tested on: BT-549
DU-145 = tested on: DU-145
PC-3 = tested on: PC-3

Structure (SMILES)	GI50 (HOP-62)	GI50 (DMS-114)	GI50 (NCI-H460)	GI50 (RPMI-8226)	GI50 (HT-29)	GI50 (SNB-78)	GI50 (M19-MEL)	GI50 (DLD-1)	GI50 (NCI-H522)	GI50 (SF-268)	GI50 (NCI/ADR-RES)	GI50 (UACC-257)	GI50 (A498)	GI50 (KM-20L2)	GI50 (MDA-N)	GI50 (T47D)	GI50 (MDA-MB-435)	GI50 (BT-549)	GI50 (DU-145)	GI50 (PC-3)
COc1ccc(C(c2ccc(C(C)C)cc(=O)c2O)c2ccc3cccnc3c2O)cc1 (stereo unspecified)	0.387 µM (active)	0.173 µM (active)	0.297 µM (active)	1.97 µM (inactive)	3.07 µM (inactive)	1.05 µM (active)	0.484 µM (active)	0.45 µM (active)	1.8 µM (inactive)	0.399 µM (active)										
O=C(NCCCl)O/N=C/c1cccnc1	> 100 µM (inactive)	> 100 µM (inactive)	> 100 µM (inactive)	> 100 µM (inactive)	> 100 µM (inactive)		> 100 µM (inactive)	> 100 µM (inactive)	> 100 µM (inactive)	> 100 µM (inactive)	> 100 µM (inactive)	> 100 µM (inactive)	> 100 µM (inactive)							
CCCCCC(/C=C/c1ncccc1OCCCCCC(=O)O)=N\NC1=NCCN1	> 100 µM (inactive)	45.2 µM (inactive)	51.9 µM (inactive)	29.4 µM (inactive)	> 100 µM (inactive)		> 100 µM (inactive)		50.8 µM (inactive)	> 100 µM (inactive)				> 100 µM (inactive)						
Clc1ccccc1C(n1ncc2ccccc21)n1ncc2ccccc21	> 100 µM (inactive)	31.3 µM (inactive)	35.8 µM (inactive)	18.2 µM (inactive)	35.9 µM (inactive)	71.1 µM (inactive)	23.1 µM (inactive)	40.5 µM (inactive)	15.1 µM (inactive)	99.3 µM (inactive)		40.8 µM (inactive)	35.6 µM (inactive)							
Cc1cc(N(CCC#N)CCC#N)ccc1/C=C(\NC(=O)/C=C/c1ccccc1)C(=O)Nc1ccccc1Cl		> 100 µM (inactive)	> 100 µM (inactive)	> 100 µM (inactive)	> 100 µM (inactive)	> 100 µM (inactive)	> 100 µM (inactive)	> 100 µM (inactive)		> 100 µM (inactive)		> 100 µM (inactive)	> 100 µM (inactive)	> 100 µM (inactive)						
CN1C2CCC1/C(=C/c1cccc3c1OCO3)C(=O)/C2=C\c1cccc2c1OCO2	12.3 µM (inactive)	> 100 µM (inactive)	> 100 µM (inactive)	> 100 µM (inactive)	> 100 µM (inactive)		> 100 µM (inactive)	> 100 µM (inactive)		47.6 µM (inactive)		> 100 µM (inactive)		> 100 µM (inactive)						
COC(=O)C1=C(C)N2CCOC2CC1c1ccccc1 (stereo unspecified)	> 100 µM (inactive)	> 100 µM (inactive)	> 100 µM (inactive)	40.4 µM (inactive)	> 100 µM (inactive)		> 100 µM (inactive)	78.3 µM (inactive)		> 100 µM (inactive)		> 100 µM (inactive)		> 100 µM (inactive)						
OC[P+](CO)(CO)C12CC3CC(CC(C3)C1)C2	> 100 µM (inactive)		76.4 µM (inactive)	21.9 µM (inactive)	48.5 µM (inactive)				> 70.8 µM (inactive)	> 100 µM (inactive)	> 100 µM (inactive)	> 100 µM (inactive)	> 100 µM (inactive)		> 100 µM (inactive)	> 100 µM (inactive)	> 100 µM (inactive)	> 100 µM (inactive)	> 100 µM (inactive)	> 100 µM (inactive)
CC(=O)Nc1ccc(C(=O)NN2C(=O)C(Cl)C2c2cccc([N+](=O)[O-])c2)cc1 (stereo unspecified)	> 100 µM (inactive)		> 100 µM (inactive)	> 100 µM (inactive)	> 100 µM (inactive)		> 100 µM (inactive)	> 100 µM (inactive)	> 100 µM (inactive)	> 100 µM (inactive)		> 100 µM (inactive)								
O=C1C(=C2CCCC2)CCC1CN1CCCCC1 (stereo unspecified)		17.5 µM (inactive)	> 10 µM (inactive)		20.4 µM (inactive)	19.6 µM (inactive)	32.4 µM (inactive)		1.77 µM (inactive)	19.5 µM (inactive)		19.4 µM (inactive)	19.4 µM (inactive)	17.5 µM (inactive)						
CCOC(=O)C1S/C(=N\c2ccc(Cl)cc2Cl)N=C1C (stereo unspecified)	51.9 µM (inactive)	33.1 µM (inactive)	86.5 µM (inactive)		> 100 µM (inactive)	60.7 µM (inactive)	86.5 µM (inactive)	73.6 µM (inactive)	35.9 µM (inactive)	> 100 µM (inactive)		88.3 µM (inactive)	39.3 µM (inactive)	> 100 µM (inactive)						
CCn1c(=O)c(C(=O)O)c(Cl)c2cc3c(cc21)OCO3	> 100 µM (inactive)		> 100 µM (inactive)	> 100 µM (inactive)	> 100 µM (inactive)	> 100 µM (inactive)	> 100 µM (inactive)	> 100 µM (inactive)	> 100 µM (inactive)	> 100 µM (inactive)	> 100 µM (inactive)	> 100 µM (inactive)	> 100 µM (inactive)	> 100 µM (inactive)						
COc1ccc2c(c1)Cc1c(NCCN(C)C)ccc(C(=O)NCCCN(C)CCCNC(=O)c3ccc(NCCN(C)C)c4c3Nc3ccc(OC)cc3C4)c1N2	< 0.01 µM (active)		< 0.01 µM (active)	< 0.01 µM (active)	< 0.01 µM (active)				< 0.01 µM (active)	< 0.01 µM (active)	4.2 µM (inactive)	0.0303 µM (active)	< 0.0404 µM (active)		< 0.01 µM (active)	0.15 µM (active)	< 0.01 µM (active)	0.148 µM (active)	< 0.01 µM (active)	< 0.01 µM (active)
COC(=O)c1sc(=O)n(-c2ccccc2)c1SCc1ccccc1	> 100 µM (inactive)		> 100 µM (inactive)	> 100 µM (inactive)	> 100 µM (inactive)		> 100 µM (inactive)	> 100 µM (inactive)	> 100 µM (inactive)			> 100 µM (inactive)		> 100 µM (inactive)						
N#CC1C(=O)C(=O)N(c2ccccc2)C1=O (stereo unspecified)	> 100 µM (inactive)	> 100 µM (inactive)	> 100 µM (inactive)	> 100 µM (inactive)	> 100 µM (inactive)	> 100 µM (inactive)	> 100 µM (inactive)		> 100 µM (inactive)	> 100 µM (inactive)		> 100 µM (inactive)	> 100 µM (inactive)	> 100 µM (inactive)						
CC1=C(C(=O)NCc2ccccc2)C(c2ccco2)C(C(=O)NCc2ccccc2)=C(C)N1	65.3 µM (inactive)	48.5 µM (inactive)	> 100 µM (inactive)	> 100 µM (inactive)	53.8 µM (inactive)	> 100 µM (inactive)		> 100 µM (inactive)	85.1 µM (inactive)	80.4 µM (inactive)		> 100 µM (inactive)	> 100 µM (inactive)	32.5 µM (inactive)						
COc1ccc(C2=C(N)c3c(Cl)cccc3C2=O)cc1	70 µM (inactive)		> 100 µM (inactive)	> 100 µM (inactive)	> 100 µM (inactive)				> 100 µM (inactive)	> 100 µM (inactive)	50 µM (inactive)	> 100 µM (inactive)	> 100 µM (inactive)		> 100 µM (inactive)	78 µM (inactive)	> 100 µM (inactive)	> 100 µM (inactive)	> 100 µM (inactive)	> 100 µM (inactive)
CN1Cc2cc3c(cc2-c2ccccc21)OCO3			> 100 µM (inactive)	> 100 µM (inactive)	> 100 µM (inactive)	> 100 µM (inactive)	> 100 µM (inactive)	> 100 µM (inactive)	> 100 µM (inactive)	> 100 µM (inactive)		> 100 µM (inactive)	> 100 µM (inactive)	91.6 µM (inactive)						
NC1C(O)C(O)C(CO)OC1n1cc(F)c(=O)[nH]c1=O (stereo unspecified)		> 100 µM (inactive)	> 100 µM (inactive)	> 100 µM (inactive)	> 100 µM (inactive)	> 100 µM (inactive)		> 100 µM (inactive)	> 100 µM (inactive)	> 100 µM (inactive)		> 100 µM (inactive)								
Cn1c(=O)c2nc3c(=O)n(C)c(=O)n(CC(N)=O)c3nc2n(C)c1=O	> 100 µM (inactive)		> 100 µM (inactive)	> 100 µM (inactive)	> 100 µM (inactive)				> 100 µM (inactive)	> 100 µM (inactive)	> 100 µM (inactive)	> 100 µM (inactive)	> 100 µM (inactive)		> 100 µM (inactive)	> 100 µM (inactive)	> 100 µM (inactive)	> 100 µM (inactive)	> 100 µM (inactive)	> 100 µM (inactive)
CCOC(=O)CSC(=O)NCCCl	> 100 µM (inactive)	> 100 µM (inactive)	> 100 µM (inactive)		> 100 µM (inactive)	> 100 µM (inactive)		> 100 µM (inactive)	> 100 µM (inactive)	> 100 µM (inactive)		> 100 µM (inactive)	> 100 µM (inactive)	> 100 µM (inactive)						
COc1ccc(N(CC(=O)O)S(=O)(=O)c2ccccc2)cc1			> 100 µM (inactive)	> 100 µM (inactive)	> 100 µM (inactive)		> 100 µM (inactive)	> 100 µM (inactive)	> 100 µM (inactive)			> 100 µM (inactive)	> 100 µM (inactive)	> 100 µM (inactive)						
CCCCOC(=O)CC(CC(=O)OCCCC)(OC(C)=O)C(=O)OCCCC [ACETYLTRIBUTYL CITRATE]	> 200 µM (inactive)		162 µM (inactive)	16 µM (inactive)	60.8 µM (inactive)				47.5 µM (inactive)	> 200 µM (inactive)	91.6 µM (inactive)	47.9 µM (inactive)	> 200 µM (inactive)		> 170 µM (inactive)	48.4 µM (inactive)	> 178 µM (inactive)	> 200 µM (inactive)	> 106 µM (inactive)	132 µM (inactive)
